In patent US3933834A, “Unsymmetrical esters of N-substituted 1,4-dihydropyridine 3,5-dicarboxylic acid” (Bayer Aktiengesellschaft, priority 1972, dated 1976):

Tests used:
hypertensive rats = assay: hypotensive activity: blood pressure of hypertensive rats after peroral administration; assay type: in vivo; conditions: Rattus norvegicus, po, read-out: Peroral Dose: lowest dose which results in at least a 15 mm Hg reduction in blood pressure
Source text: The hypotensive activity of the present compounds can be observed by measuring the blood pressure of hypertensive rats following administration of the compounds.

coronary vessels = assay: coronary vessel dilation: rise in oxygen saturation in the coronary sinus in the narcotized, heart-catheterized dog; assay type: in vivo; conditions: intravenous
Source text: They can accordingly be used where either or both of these effects are desired. Thus upon parenteral, oral or sublingual administration, the compounds produce a distinct and long lasting dilation of the coronary vessels which is intensified by a simultaneous nitrite-like effect of reducing the load on the heart. […] The effect on heart metabolism is thus one of energy saving. In addition, the compounds lower the blood pressure of normotonic and hypertonic animals and can thus be used as antihypertensive agents. These properties can be conveniently observed in well known laboratory models. Thus, for example, the coronary vessel dilation effect of the compounds of the invention was compared with the action of Persantin by measuring the rise in oxygen saturation in the coronary sinus in the narcotized, heart-catheterized dog, with the results reported in Table I, below.
^1 Dose given in mg/kg. body weight, administered intravenously;
^2 O2 rise given as % rise in oxygen saturation;
^3 Reversion time given is time in hours for reversion to the initial

[1] = toxicity (LD50) measured on mice by peroral administration; conditions: mouse, in vivo, po

Structure (SMILES): C=CCOC(=O)C1=C(C)N(C)C(C)=C(C(=O)OCC)C1c1ccccc1C#N (centres unmarked) [Example 6, 1,2,6-trimethyl-4-(2'-cyanophenyl)-1,4-dihydropyridine-3,5-dicarboxylic acid 3-ethyl-ester-5-allyl-ester]
- minimal effective dose (hypertensive rats): 0.3 mg/kg
- O2 % Rise (rise in oxygen saturation in the coronary sinus) (coronary vessels; 0.05 mg/kg): 39%
- Reversion time (to the initial value) (coronary vessels; 0.05 mg/kg): > 4 h

Structure (SMILES): CCOC(=O)C1=C(C)N(C)C(C)=C(C(=O)OC(C)C)C1c1cccc([N+](=O)[O-])c1 (centres unmarked) [Example 3, 1,2,6-trimethyl-4-(3'-nitrophenyl)-1,4-dihydropyridine-3,5-dicarboxylic acid 3-ethyl-ester-5-isopropyl-ester]
- LD50 [1]: 3000 mg/kg
- minimal effective dose (hypertensive rats): 0.3 mg/kg
- O2 % Rise (rise in oxygen saturation in the coronary sinus) (coronary vessels; 0.1 mg/kg): 39%
- Reversion time (to the initial value) (coronary vessels; 0.1 mg/kg): > 6 h

Structure (SMILES): OCCN(CCO)c1nc(N2CCCCC2)c2nc(N(CCO)CCO)nc(N3CCCCC3)c2n1 [Persantin, reference compound]
- O2 % Rise (rise in oxygen saturation in the coronary sinus) (coronary vessels; 0.3 mg/kg): 23%
- Reversion time (to the initial value) (coronary vessels; 0.3 mg/kg): 1 to 2 h
- O2 % Rise (rise in oxygen saturation in the coronary sinus) (coronary vessels; 0.4 mg/kg): 34%
- Reversion time (to the initial value) (coronary vessels; 0.4 mg/kg): 1 to 2 h

Structure (SMILES): CCOC(=O)C1=C(C)N(C)C(C)=C(C(=O)OC)C1c1cccc([N+](=O)[O-])c1 (centres unmarked) [Example 1, 1,2,6-trimethyl-4-(3'-nitrophenyl)-1,4-dihydropyridine-3,5-dicarboxylic acid 3-methyl-ester-5-ethyl-ester]
- LD50 [1]: 3000 mg/kg
- minimal effective dose (hypertensive rats): 0.3 mg/kg

Structure (SMILES): COC(=O)C1=C(C)N(C)C(C)=C(C(=O)OC(C)C)C1c1cccc([N+](=O)[O-])c1 (centres unmarked) [Example 2, 1,2,6-trimethyl-4-(3'-nitrophenyl)-1,4-dihydropyridine-3,5-dicarboxylic acid 3-methyl-ester-5-isopropyl-ester]
- LD50 [1]: 3000 mg/kg
- minimal effective dose (hypertensive rats): 1 mg/kg
- O2 % Rise (rise in oxygen saturation in the coronary sinus) (coronary vessels; 0.01 mg/kg): 31%
- Reversion time (to the initial value) (coronary vessels; 0.01 mg/kg): > 3.5 h
